Tests used:
[1] = target: T1, Voltage-gated inwardly rectifying potassium channel KCNH2 (Homo sapiens, UniProt Q12809)
Description: Inhibition of human ERG expressed in HEK293 cells by Q-patch assay

[2] = target: T1, Voltage-gated inwardly rectifying potassium channel KCNH2; remark: listed apart in the source
Description: (§1) Inhibition of human ERG expressed in HEK293 cells by Barracuda automated patch clamp assay

[3] = Protein binding in human blood at 1 ug/ml after 4 hrs by LC-MS/MS analysis; assay type: ADME, tissue-based; details: at 1 µg/mL, read-out: PB (converted)
physchem = details: buffer, pH 7.4, logD
[4] = Toxicity in rabbit cardiac ventricular wedge assessed as increase in QT interval prolongation at 1 to 3 uM; assay type: tissue-based, Oryctolagus cuniculus, Cardiac ventricle
[5] = buffer, pH 7.4
[6] = target: T1, Voltage-gated inwardly rectifying potassium channel KCNH2; details: HEK293 cells expressing hERG
Description: as §1

T1 sequence (Q12809 whole entry): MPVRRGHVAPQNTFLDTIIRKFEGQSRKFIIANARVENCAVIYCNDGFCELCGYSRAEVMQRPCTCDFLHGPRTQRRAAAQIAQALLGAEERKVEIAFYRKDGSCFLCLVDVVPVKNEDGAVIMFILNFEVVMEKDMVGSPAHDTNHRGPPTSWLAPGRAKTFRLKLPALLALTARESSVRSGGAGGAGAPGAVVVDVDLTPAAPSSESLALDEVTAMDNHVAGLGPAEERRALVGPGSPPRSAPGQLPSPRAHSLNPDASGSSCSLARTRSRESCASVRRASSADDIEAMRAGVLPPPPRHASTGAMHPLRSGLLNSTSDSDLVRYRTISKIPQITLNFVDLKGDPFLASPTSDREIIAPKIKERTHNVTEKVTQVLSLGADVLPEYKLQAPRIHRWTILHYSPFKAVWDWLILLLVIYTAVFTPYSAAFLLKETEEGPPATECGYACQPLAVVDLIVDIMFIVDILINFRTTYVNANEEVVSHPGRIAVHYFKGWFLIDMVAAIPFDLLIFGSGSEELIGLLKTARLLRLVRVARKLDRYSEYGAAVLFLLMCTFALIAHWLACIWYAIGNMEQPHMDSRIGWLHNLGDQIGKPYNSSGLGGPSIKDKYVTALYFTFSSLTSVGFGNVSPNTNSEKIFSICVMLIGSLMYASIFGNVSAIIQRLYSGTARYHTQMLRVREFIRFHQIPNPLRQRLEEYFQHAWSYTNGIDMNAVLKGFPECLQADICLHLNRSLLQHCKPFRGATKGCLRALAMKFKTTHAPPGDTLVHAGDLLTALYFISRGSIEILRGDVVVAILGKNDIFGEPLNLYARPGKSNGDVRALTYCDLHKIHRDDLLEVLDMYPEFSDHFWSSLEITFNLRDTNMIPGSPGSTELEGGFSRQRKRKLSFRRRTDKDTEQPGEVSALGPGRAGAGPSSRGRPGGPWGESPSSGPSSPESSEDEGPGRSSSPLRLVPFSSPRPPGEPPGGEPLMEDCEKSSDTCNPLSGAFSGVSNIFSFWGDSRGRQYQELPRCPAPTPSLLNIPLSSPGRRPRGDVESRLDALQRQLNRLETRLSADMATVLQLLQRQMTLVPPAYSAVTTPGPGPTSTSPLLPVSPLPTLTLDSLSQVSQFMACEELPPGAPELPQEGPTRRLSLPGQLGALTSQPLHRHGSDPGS

fraction unbound at 4 h, 1 ug/ml [3]	logD (physchem)	logD [5]	SMILES	IC50 [1] [µM]	IC50 [2] [µM]	Activity [4]	pIC50 [6]
0.46	1.05	–	O=C(O)C[C@H](CN1CC[C@@H](CCc2ccc3c(n2)NCCC3)C1)c1cccc(-n2cnnc2)c1	> 31.6	> 50.1	–	–
–	3.01	–	Cc1cnn(-c2cccc([C@H](CC(=O)O)CN3CC[C@@H](CCc4ccc5c(n4)NCCC5)C3)c2)c1	–	10	–	–
–	2.62	–	O=C(O)C[C@H](CN1CC[C@@H](CCc2ccc3c(n2)NCCC3)C1)c1cccc(C2CCOCC2)c1	–	–	–	–
–	1.77	–	Cc1nncn1-c1cccc([C@H](CC(=O)O)CN2CC[C@@H](CCc3ccc4c(n3)NCCC4)C2)c1	> 31.6	–	–	–
–	1.97	–	O=C(O)CC(CN1CC[C@@H](CCc2ccc3c(n2)NCCC3)C1)c1cccc(-n2ccnc2)c1 (mixture of isomers)	> 31.6	> 50.1	–	–
–	1.99	–	O=C(O)C[C@@H](CN1CC[C@@H](CCc2ccc3c(n2)NCCC3)C1)c1cccc(N2CCOCC2)c1	–	–	–	–
–	–	–	O=C(O)C[C@H](CN1CC[C@@H](CCc2ccc3c(n2)NCCC3)C1)c1cccc(C2CC2)c1	–	–	Dose-dependent effect	–
–	1.66	–	Cc1nc(C)n(-c2cccc([C@H](CC(=O)O)CN3CC[C@@H](CCc4ccc5c(n4)NCCC5)C3)c2)n1	> 31.6	> 50.1	–	–
0.17	–	2.58	O=C(O)C[C@H](CN1CC[C@@H](CCc2ccc3c(n2)NCCC3)C1)c1cccc(C2CCOC2)c1 (stereo in doubt; 28xI2)	31.6	–	–	4.4
–	2.09	–	Cc1cn(C)c(-c2cccc([C@H](CC(=O)O)CN3CC[C@@H](CCc4ccc5c(n4)NCCC5)C3)c2)n1	> 31.6	> 50.1	–	–
–	2.4	–	O=C(O)C[C@H](CN1CC[C@@H](CCc2ccc3c(n2)NCCC3)C1)c1cccc(-n2cccn2)c1	0.794	> 50.1	–	–
–	3.07	–	O=C(O)C[C@H](CN1CC[C@@H](CCc2ccc3c(n2)NCCC3)C1)c1cc(C2CC2)cc(N2CCOCC2)c1	–	–	–	–
0.4	1.95	–	O=C(O)C[C@H](CN1CC[C@@H](CCc2ccc3c(n2)NCCC3)C1)c1cccc(-n2cncn2)c1	> 31.6	> 50.1	–	–
